± gives the standard deviation of the averaged measurements.

This test deals with Danio rerio embryo. Description: benchmark concentration, MalformedAny+Mort@120 (percent of embryos dead or malformed at 120 hpf); higher = less toxic. The settings on record: exposure window: 4-6 to 120 hpf. On the procedure: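 Single zebrafish embryos in 96-well plates (200 µL; 0.5% DMSO vehicle) were exposed from about 4–6 hpf to 120 hpf at 7 or more concentrations up to 100 µM or the solubility limit, one plate per replicate. Each lab used its in-house protocol: Lab A used AB embryos in E3 with chorion on and daily renewal; Lab B used Tropical 5D embryos in E2, dechorionated, static; Lab C used AB embryos in E3 with chorion on, static. The percentage of dead or malformed embryos at 120 hpf was fitted per plate (positive control: per week) by bootstrap Curvep to give a benchmark concentration (BMC); inactive substances are set to the highest tested concentration, BMCs at the lowest tested concentration are floors.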

Setting [1] is: laboratory protocol: Lab A: static renewal, chorionated (SR-C), AB strain, E3.
[2] abbreviates: laboratory protocol: Lab C: static, chorionated (S-C), AB strain, E3.
Where [3] appears, read: laboratory protocol: Lab B: static, dechorionated (S-DC), Tropical 5D strain, E2.

For `CC(C)(C)[C@H](O)[C@H](Cc1ccc(Cl)cc1)n1cncn1` (racemic) [Paclobutrazol], the benchmark concentration under setting [1] is 0.339 ± 0.16 µM and the benchmark concentration under setting [2] turned out to be 23.1 ± 21 µM.
On to `CC(C)(c1cc(Br)c(O)c(Br)c1)c1cc(Br)c(O)c(Br)c1` [3,3',5,5'-Tetrabromobisphenol A], for which the benchmark concentration was found to be 1.39 µM under setting [1], 2.97 ± 0.81 µM under setting [3] and 4.25 ± 0.23 µM under setting [2].
The matching figures for `Nc1ccc(Cl)c(Cl)c1` [3,4-Dichloroaniline]: 7.8 ± 0.11 µM, < 2 µM and 14 ± 4.4 µM.
Turning to `CCCc1cc(=O)[nH]c(=S)[nH]1` [6-Propyl-2-thiouracil], the benchmark concentration reads like this: under setting [1], > 100 µM; under setting [3], > 100 µM.
Compound `CC[C@H](C)[C@H]1O[C@]2(C=C[C@@H]1C)C[C@@H]1C[C@@H](C/C=C(\C)[C@@H](O[C@H]3C[C@H](OC)[C@@H](O[C@H]4C[C@H](OC)[C@@H](O)[C@H](C)O4)[C@H](C)O3)[C@@H](C)/C=C/C=C3\CO[C@@H]4[C@H](O)C(C)=C[C@@H](C(=O)O1)[C@]34O)O2.CO[C@H]1C[C@H](O[C@H]2[C@H](C)O[C@@H](O[C@@H]3/C(C)=C/C[C@@H]4C[C@@H](C[C@]5(C=C[C@H](C)[C@@H](C(C)C)O5)O4)OC(=O)[C@@H]4C=C(C)[C@@H](O)[C@H]5OC/C(=C\C=C\[C@@H]3C)[C@]54O)C[C@@H]2OC)O[C@@H](C)[C@@H]1O` [Abamectin] came in with a benchmark concentration under setting [2] of 0.436 ± 0.24 µM.
Turning to `CC=O` [Acetaldehyde], the benchmark concentration runs as follows: under setting [1], > 100 µM; under setting [3], > 100 µM; under setting [2], > 100 µM.
As to `CNC(=O)O/N=C/C(C)(C)SC` [Aldicarb], the benchmark concentration is, setting by setting: under setting [1], 0.926 ± 0.4 µM; under setting [3], 2.27 ± 0.83 µM; under setting [2], 1.94 ± 0.48 µM.
Consider `CC(=O)Oc1ccccc1C(=O)O` [Aspirin], for which the benchmark concentration is > 100 µM under setting [3] and 24.6 ± 18 µM under setting [2].
In the case of `CCNc1nc(Cl)nc(NC(C)C)n1` [Atrazine], the benchmark concentration is 49 ± 5.9 µM under setting [1], > 100 µM under setting [3] and > 100 µM under setting [2].
As to `CCC[CH2][Sn]([CH2]CCC)([CH2]CCC)[O][Sn]([CH2]CCC)([CH2]CCC)[CH2]CCC` [Bis(tributyltin)oxide], the benchmark concentration by setting is: under setting [1], 0.0463 ± 0.0031 µM; under setting [2], 1.08 ± 0.52 µM.
For the compound `CC(C)(c1ccc(O)cc1)c1ccc(O)cc1` [Bisphenol A], the benchmark concentration under setting [1] is 13 ± 2.4 µM, the benchmark concentration under setting [3] was determined as 38.5 ± 2.8 µM and the benchmark concentration under setting [2] stood at 21.8 ± 12 µM.
As to `Cn1c(=O)c2c(ncn2C)n(C)c1=O` [Caffeine], the benchmark concentration was > 100 µM under setting [1] and > 100 µM under setting [3].
`CCOP(=O)(OCC)Oc1nc(Cl)c(Cl)cc1Cl` [Chlorpyrifos oxon]: the benchmark concentration is 1.69 ± 0.43 µM under setting [3] and 0.2 ± 0.14 µM under setting [2].
With `CCOP(=S)(OCC)Oc1nc(Cl)c(Cl)cc1Cl` [Chlorpyrifos], the benchmark concentration runs as follows: under setting [1], 0.879 ± 0.45 µM; under setting [3], 63.7 ± 35 µM; under setting [2], 45.7 µM.
In the case of `c1ccc2c(c1)ccc1cc3c(ccc4ccccc43)cc12` [Dibenz(a,h)anthracene], the benchmark concentration by setting is: under setting [3], > 64 µM; under setting [2], > 100 µM.
For the compound `CCCCOC(=O)c1ccccc1C(=O)OCCCC` [Dibutyl phthalate], the benchmark concentration reads like this: under setting [1], 1.28 ± 0.24 µM; under setting [3], 4.16 ± 0.31 µM; under setting [2], 38.2 ± 13 µM.
The matching figures for `CC/C(=C(/CC)c1ccc(O)cc1)c1ccc(O)cc1` [Diethylstilbestrol]: 0.547 ± 0.03 µM, 3.07 ± 0.69 µM and 3.37 ± 1.3 µM.
The matching figures for `CCCCOC(=O)C(C)Oc1ccc(Oc2ccc(C(F)(F)F)cn2)cc1` (stereo not drawn) [Fluazifop-butyl]: 2.6 ± 1.5 µM, 3.5 ± 1 µM and 53.8 ± 10 µM.
The matching figures for `C[Si](Cn1cncn1)(c1ccc(F)cc1)c1ccc(F)cc1` [Flusilazole]: 1.41 ± 0.027 µM, 6.04 ± 1.4 µM and 11.6 ± 5.1 µM.
As for `NC(=O)NO` [Hydroxyurea], the benchmark concentration under setting [1] was > 100 µM and the benchmark concentration under setting [3] is > 100 µM.
For the compound `CC(C)NC(=O)N1CC(=O)N(c2cc(Cl)cc(Cl)c2)C1=O` [Iprodione], the benchmark concentration by setting is: under setting [1], 11.7 ± 3.8 µM; under setting [3], 62.3 ± 23 µM; under setting [2], 35.7 ± 18 µM.
The matching figures for `Cl[C@H]1[C@H](Cl)[C@@H](Cl)[C@@H](Cl)[C@H](Cl)[C@H]1Cl` [Lindane]: 1.24 ± 0.5 µM, 35.6 ± 6.7 µM and 9.25 ± 4.2 µM.
On to `CON(C)C(=O)Nc1ccc(Cl)c(Cl)c1` [Linuron], for which the benchmark concentration came to 4.78 ± 0.21 µM under setting [1], 19.5 ± 9.7 µM under setting [3] and 29.7 ± 14 µM under setting [2].
`Oc1c(Cl)c(Cl)c(Cl)c(Cl)c1Cl` [Pentachlorophenol]: the benchmark concentration is 0.257 ± 0.15 µM under setting [1], < 1 µM under setting [3] and 0.818 ± 0.49 µM under setting [2].
As for `CCOP(=S)(OCC)SCSCC` [Phorate], the benchmark concentration under setting [1] stood at 2.53 ± 1.7 µM and the benchmark concentration under setting [3] was > 100 µM.
Consider `CC(C)c1cccc(C(C)C)c1O` [Propofol], for which the benchmark concentration was 0.502 ± 0.076 µM under setting [1] and > 100 µM under setting [3].
The matching figures for `c1cc2ccc3cccc4ccc(c1)c2c34` [Pyrene]: 3.81 ± 1.2 µM and 50.5 ± 25 µM.
As to `CC(COc1ccc(Oc2ccccc2)cc1)Oc1ccccn1` (stereo not drawn) [Pyriproxyfen], the benchmark concentration amounted to 4.41 ± 1.7 µM under setting [1] and 65.4 ± 16 µM under setting [3].
For the compound `Oc1cccc(O)c1` [Resorcinol], the benchmark concentration is > 100 µM under setting [1], > 100 µM under setting [3] and > 100 µM under setting [2].
As for `C=C(C)[C@H]1Cc2c(ccc3c2O[C@@H]2COc4cc(OC)c(OC)cc4[C@@H]2C3=O)O1` [Rotenone], the benchmark concentration under setting [3] was < 1 µM and the benchmark concentration under setting [2] was 0.194 ± 0.15 µM.
As to `CCCC(CCC)C(=O)O` [Sodium valproate], the benchmark concentration is, setting by setting: under setting [3], > 100 µM; under setting [2], 4.12 µM.
Turning to `O=C1CCC(N2C(=O)c3ccccc3C2=O)C(=O)N1` (stereo not drawn) [Thalidomide], the benchmark concentration runs as follows: under setting [1], > 100 µM; under setting [3], > 100 µM.
`CC(C)(C)C(=O)C(Oc1ccc(Cl)cc1)n1cncn1` (stereo not drawn) [Triadimefon] gave a benchmark concentration under setting [1] of 1.51 ± 0.11 µM, a benchmark concentration under setting [3] of 7.61 ± 4.6 µM and a benchmark concentration under setting [2] of 6.93 ± 6.8 µM.
The matching figures for `Oc1cc(Cl)ccc1Oc1ccc(Cl)cc1Cl` [Triclosan]: 1.2 ± 0.34 µM, 3.62 ± 0.7 µM and 7.86 ± 5.5 µM.
In the case of `O=P(Oc1ccccc1)(Oc1ccccc1)Oc1ccccc1` [Triphenyl phosphate], the benchmark concentration turned out to be 0.879 ± 0.45 µM under setting [1], 4.35 ± 0.61 µM under setting [3] and 30 ± 15 µM under setting [2].
The matching figures for `O=P(OC(CCl)CCl)(OC(CCl)CCl)OC(CCl)CCl` [Tris(1,3-dichloro-2-propyl) phosphate]: 2.2 ± 0.24 µM, 6.94 ± 2.6 µM and 15.9 ± 3.1 µM.
In the case of `CCCC(CCC)C(=O)O` [Valproic acid], the benchmark concentration under setting [2] stood at 6 ± 7.4 µM.
With `CN(C)C(=S)[S-].CN(C)C(=S)[S-].[Zn+2]` [Ziram], the benchmark concentration under setting [3] is < 1 µM.

The values are drawn from the supplement of paper PMC10820928.
